# Experimental data reported in patent publication US12280141B2, “Liquid depot for non-invasive sustained delivery of agents to the eye” (CHIBI, INC., priority 2018, dated 2025).
# Where “and” joins values, the source holds several entries; their conditions need not be identical. Equal entries are not always repeated. Entries after “also recorded” stand apart in the source; their conditions may differ.
# Columns and labels:
# [1] = In vitro release of gatifloxacin from liquid depot, samples Gati-90A to F; format: physicochemical; conditions: for Gatifloxacin cumulative % released, Avg: Avg of 90-A to 90-F
# Description: The in vitro sustained release study of gatifloxacin was carried out using a Cabone ring (Wilton Brands LLC, Woodridge, Ill. 60517) of 12.7 mm. […] [At each time point, 20 ml from each of the six samples was withdrawn for sampling and replaced with 20 mL saline. The amount of gatifloxacin released was determined by UPLC. The release profile of gatifloxacin-containing liquid depot formulation is shown in Table 15, Table 16, and FIG. 14; gatifloxacin was released for at least 24 hours.
# [2] = Dexamethasone level in anterior chamber after 50 μL depot (GLP study); format: in vivo, New Zealand White (NZW) rabbits; conditions: both sexes, New Zealand White, rabbit, topical
# Description: In a good laboratory practices (GLP) study, depots of 50 μL were instilled into each eye of New Zealand White (NZW) rabbits (either sex, 3.5-4 kilo), and the anterior chamber tapped subsequently and assayed by LCMS.
# [3] = Dexamethasone in eye tissues and fluids after one 25 μL depot instillation; conditions: for concentration at 3 day / concentration at 8 day / concentration at 8 h / concentration at 24 h / concentration at 14 day / concentration at 21 day: female, New Zealand White, rabbit, topical, 25 μL, Dexamethasone; for concentration at 3 day: Day 3; for concentration at 8 day: Day 8; for concentration at 24 h: Hr 24
# [4] = Diclofenac in tear samples after 50 μL liquid depot; format: in vivo, NZW rabbits; conditions: one-time application of 50 μL
# Description: A formulation of the NSAID diclofenac was prepared by thoroughly mixing 10% diclofenac acid in a 90% liquid depot mixture of 80:20 tocopheryl acetate:Miglyol®. A one-time application of 50 μL of this formulation was instilled into the eyes of NZW rabbits, and then tear samples were collected and analyzed as described herein.
# [5] = In vitro release of prednisolone from liquid depot, samples 5A to 5F; format: physicochemical
# Description: Six samples, 5A to 5F, each weighing at 48.2 mg, 48.5 mg, 48.1 mg, 49 mg, 51.7 mg, and 49.2 mg, respectively (average weight=49.1 mg; SD=1.34; % RSD=2.7) were incubated in 50 ml saline at 40° C. At each time point, 25 ml from each of the six samples was withdrawn for sampling and replaced with 25 ml saline.
# [6] = Vitamin E acetate in rabbit aqueous humor samples; format: in vivo; conditions: days 1, 4, 7, 12; quantification limit 1.0 ng/mL
# [7] = single 50 μL instillation
# [8] = aqueous humor, Aqueous Humor Average (±SD), one 25 μL instillation of 10% dexamethasone depot
# [9] = conjunctiva, Conjunctiva Average (±SD), one 25 μL instillation
# [10] = cornea, Cornea Average (±SD), one 25 μL instillation
# [11] = iris/ciliary body, Iris/Ciliary Body Average (±SD), one 25 μL instillation
# [12] = one instillation of the liquid depot
smiles,measurement,setting,value
"COc1c(N2CCNC(C)C2)c(F)cc2c(=O)c(C(=O)O)cn(C3CC3)c12 (stereo not shown) [Gatifloxacin, gatifloxacin]",Average concentration of gatifloxacin released,[1]; 1 Hour,38.9 µg/mL
same,"Gatifloxacin cumulative % released, Avg",[1]; 1 Hour,32.3%
same,Average concentration of gatifloxacin released,[1]; 3 Hours,61.9 µg/mL
same,"Gatifloxacin cumulative % released, Avg",[1]; 3 Hours,67.5%
same,Average concentration of gatifloxacin released,[1]; 24 Hours,53.4 µg/mL
same,"Gatifloxacin cumulative % released, Avg",[1]; 24 Hours,86.2%
same,Time gatifloxacin was released in vitro,[1]; 40 mL saline at 40° C.,at least 24 hours
"C[C@@H]1C[C@H]2[C@@H]3CCC4=CC(=O)C=C[C@]4(C)[C@@]3(F)[C@@H](O)C[C@]2(C)[C@@]1(O)C(=O)CO [Dexamethasone, dexamethasone]",concentration at 1 day,"[2]; Day 1, 50 μL depot 10:72:18",6.68 ng/mL
same,concentration at 3 day,"[2]; Day 3, 50 μL depot 10:72:18",6.48 ng/mL
same,concentration at 5 day,"[2]; Day 5, 50 μL depot 10:72:18",4.14 ng/mL
same,concentration at 7 day,"[2]; Day 7, 50 μL depot 10:72:18",4.08 ng/mL
same,concentration at 10 day,"[2]; Day 10, 50 μL depot 10:72:18",3.2 ng/mL
same,"Dexamethasone, Iris/Ciliary Body Tissue","[3]; Day 14, per eye, one 25 μL instillation",1.21 ng/g and 2.00 ng/g
same,"Dexamethasone, Iris/Ciliary Body Homog.","[3]; Day 14, per eye, one 25 μL instillation, LOQ 0.2 ng/mL",0.241 ng/mL and 0.399 ng/mL
same,"Dexamethasone, Aqueous Humor Conc.","[3]; Day 21, per eye, one 25 μL instillation of 10% dexamethasone depot, LOQ 0.5 ng/mL",BLOQ
same,"Dexamethasone, Iris/Ciliary Body Homog.","[3]; Day 21, per eye, one 25 μL instillation, LOQ 0.2 ng/mL",BLOQ
same,"Dexamethasone, Iris/Ciliary Body Tissue","[3]; Hr 8, per eye, one 25 μL instillation",83.0 ng/g and 86.0 ng/g and 150 ng/g and 113 ng/g and 157 ng/g
same,"Dexamethasone, Iris/Ciliary Body Homog.","[3]; Hr 8, per eye, one 25 μL instillation, LOQ 0.2 ng/mL",16.6 ng/mL and 17.2 ng/mL and 30.0 ng/mL and 22.5 ng/mL and 31.4 ng/mL
same,concentration at 3 day,[3]; [8],2.5 ng/mL
same,concentration at 8 day,[3]; [8],7.53 ng/mL
same,concentration at 8 h,"[3]; aqueous humor, Aqueous Humor Average (±SD), Hr 8, one 25 μL instillation of 10% dexamethasone depot",44.8 ng/mL
same,concentration at 24 h,[3]; [8],2.47 ng/mL
same,concentration at 14 day,"[3]; aqueous humor, Aqueous Humor Conc., Day 14, per eye, one 25 μL instillation of 10% dexamethasone depot, LOQ 0.5 ng/mL",0.677 ng/mL
same,concentration at 3 day,[3]; [9],372 ng/g
same,concentration at 8 day,[3]; [9],1630 ng/g
same,concentration at 14 day,"[3]; conjunctiva, Conjunctiva Average (±SD), Day 14, one 25 μL instillation",53.8 ng/g
same,concentration at 21 day,"[3]; conjunctiva, Conjunctiva Average (±SD), Day 21, one 25 μL instillation",28.2 ng/g
same,concentration at 8 h,"[3]; conjunctiva, Conjunctiva Average (±SD), Hr 8, one 25 μL instillation",1660 ng/g
same,concentration at 24 h,[3]; [9],598 ng/g
same,concentration at 3 day,[3]; [10],176 ng/g
same,concentration at 8 day,[3]; [10],284 ng/g
same,concentration at 14 day,"[3]; cornea, Cornea Average (±SD), Day 14, one 25 μL instillation",12.2 ng/g
same,concentration at 21 day,"[3]; cornea, Cornea Average (±SD), Day 21, one 25 μL instillation",8.14 ng/g
same,concentration at 8 h,"[3]; cornea, Cornea Average (±SD), Hr 8, one 25 μL instillation",560 ng/g
same,concentration at 24 h,[3]; [10],260 ng/g
same,concentration at 14 day,"[3]; iris/ciliary body homogenate, Iris/Ciliary Body Homog., Day 14, per eye, one 25 μL instillation, LOQ 0.2 ng/mL",0.239 ng/mL
same,concentration at 8 h,"[3]; iris/ciliary body homogenate, Iris/Ciliary Body Homog., Hr 8, per eye, one 25 μL instillation, LOQ 0.2 ng/mL",30.2 ng/mL
same,concentration at 3 day,[3]; [11],9.72 ng/g
same,concentration at 8 day,[3]; [11],8.15 ng/g
same,concentration at 14 day,"[3]; iris/ciliary body, Iris/Ciliary Body Average (±SD), Day 14, one 25 μL instillation",1.47 ng/g
same,concentration at 21 day,"[3]; iris/ciliary body, Iris/Ciliary Body Average (±SD), Day 21, one 25 μL instillation",3.88 ng/g
same,concentration at 8 h,"[3]; iris/ciliary body, Iris/Ciliary Body Average (±SD), Hr 8, one 25 μL instillation",123 ng/g
same,concentration at 24 h,[3]; [11],12.3 ng/g
same,concentration at 14 day,"[3]; iris/ciliary body, Iris/Ciliary Body Tissue, Day 14, per eye, one 25 μL instillation",1.2 ng/g
same,concentration at 8 h,"[3]; iris/ciliary body, Iris/Ciliary Body Tissue, Hr 8, per eye, one 25 μL instillation",151 ng/g
same,Time dexamethasone was in the aqueous humor,[3]; [12],at least 8 days
same,"Time dexamethasone was in the conjunctiva, cornea, and iris/ciliary body",[3]; [12],at least 21 days
"O=C(O)Cc1ccccc1Nc1c(Cl)cccc1Cl [diclofenac, diclofenac acid]",Time diclofenac was detected in the rabbit tear film,[4],≥ 7 days
"C[C@]12C=CC(=O)C=C1CC[C@@H]1[C@@H]2[C@@H](O)C[C@@]2(C)[C@H]1CC[C@]2(O)C(=O)CO [Prednisolone, prednisolone]","Prednisolone cumulative % released, Avg","[5]; Day 0, Avg of 5A to 5F",0%
same,Average concentration of prednisolone released,[5]; Day 1,32.6 µg/mL
same,"Amount of prednisolone released, Avg","[5]; Day 1, Avg of 5A to 5F",1630.3 µg
same,Average concentration of prednisolone released,[5]; Day 2,39.4 µg/mL
same,"Amount of prednisolone released, Avg","[5]; Day 2, Avg of 5A to 5F",1153.1 µg
same,Average concentration of prednisolone released,[5]; Day 3,38.1 µg/mL
same,"Amount of prednisolone released, Avg","[5]; Day 3, Avg of 5A to 5F",922.4 µg
same,Average concentration of prednisolone released,[5]; Day 4,30.6 µg/mL
same,"Amount of prednisolone released, Avg","[5]; Day 4, Avg of 5A to 5F",577.5 µg
same,Average concentration of prednisolone released,[5]; Day 5,19.6 µg/mL
same,"Amount of prednisolone released, Avg","[5]; Day 5, Avg of 5A to 5F",72.3 µg
"CC(=O)Oc1c(C)c(C)c2c(c1C)CC[C@@](C)(CCC[C@H](C)CCC[C@H](C)CCCC(C)C)O2 [Vitamin E acetate, [(2R)-2,5,7,8-tetramethyl-2-[(4R,8R)-4,8,12-trimethyltridecyl]chroman-6-yl]acetate]",Vitamin E acetate in aqueous humor samples,[6],not observed; also recorded: No detectable
same,Time vitamin E acetate was present in the tears of rabbit eyes,[7],at least 12 days
